Laboratory results published in patent publication US6358885B1, “Substituted phenylheterocyclic herbicides” (Mississippi State University, priority 1992, dated 2002).

How the values were obtained:
[1] = system: giant foxtail; assay: Test C preemergence/postemergence greenhouse plant response rating 0 to 100; assay type: in vivo, Setaria faberii; conditions: for Plant response rating, Giant foxtail: 0 to 100 scale
Source text: (§1) The compounds evaluated in this test were formulated in a non-phytoxic solvent and applied to the soil surface before plant seedlings emerged (preemergence application), to water that covered the soil surface (flood application), and to plants that were in the one-to-four leaf stage (postemergence application). A sandy loam soil was used for the preemergence and postemergence tests, while a silt loam soil was used in the flood test. Water depth was approximately 2.5 cm for the flood test and was maintained at this level for the duration of the test. Plant species in the preemergence and postemergence tests consisted of barley (Hordeum vulgare), bedstraw (Galium aparine), blackgrass (Alopecurus myosuroides), chickweed (Stellaria media), corn (Zea mays), cotton (Gossypium hirsutum), crabgrass (Digitaria sanguinalis), downy brome (Bromus tectorum), giant foxtail (Setaria faberii), lambsquarters (Chenopodium album), morningglory (Ipomoea hederacea), pigweed ([…]), rape (Brassica napus), ryegrass (Lolium multiflorum), sorghum (Sorghum bicolor), soybean (Glycine max), speedwell (Veronica persica), sugar beet (Beta vulgaris), velvetleaf (Abutilon theophrasti), wheat (Triticum aestivum), wild buckwheat (Polygonum convolvulus), and wild oat (Avena fatua). All plant species were planted one day before application of the compound for the preemergence portion-of this test. Plantings of these species were adjusted to produce plants of appropriate size for the post-emergence portion of the test. […] All plant species were grown using normal greenhouse practices. Visual evaluations of injury expressed on treated plants, when compared to untreated controls, were recorded approximately fourteen to twenty one days after application of the test compound. […] A dash (-) response means no test result.

[2] = system: wheat; assay: as above; assay type: in vivo, Triticum aestivum; conditions: for Plant response rating, Wheat: 0 to 100 scale
Source text: as §1

[3] = system: corn; assay: as above; assay type: in vivo, Zea mays; conditions: for Plant response rating, Corn: 0 to 100 scale
Source text: as §1

[4] = system: bedstraw; assay: as above; assay type: in vivo, Galium aparine; conditions: for Plant response rating, Bedstraw: 0 to 100 scale
Source text: as §1

[5] = system: velvetleaf; assay: as above; assay type: in vivo, Abutilon theophrasti; conditions: for Plant response rating, Velvetleaf: 0 to 100 scale
Source text: as §1

[6] = system: bedstraw; assay: Test B preemergence/postemergence greenhouse plant response rating 0 to 10; assay type: in vivo, Galium aparine; conditions: for Plant response rating, Bedstraw: 0 to 10 scale
Outline: (§2)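 Test chemicals, dissolved in a non-phytotoxic solvent, were applied to soil at planting and, at the same time, over foliage of seedlings at the one to four leaf stage.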

[7] = system: corn; assay: as above; assay type: in vivo, Zea mays; conditions: for Plant response rating, Corn: 0 to 10 scale
Outline: as §2

[8] = system: barnyardgrass; assay: Test C flood test plant response rating 0 to 100; assay type: in vivo, Echinochloa crus-galli; conditions: for Plant response rating (0 to 100), Barnyardgrass: under POSTEMERGENCE head (flood test species); for Plant response rating, Barnyardgrass: flood test species listed under POSTEMERGENCE, 0 to 100 scale
Source text: as §1

[9] = system: duck salad; assay: Test C flood test plant response rating 0 to 100; assay type: in vivo, Heteranthera limosa
Source text: as §1

For `C#CCOc1cc(-c2nn3c(c2Br)CCCC3)c(F)cc1Cl` [Compound 26], the “Plant response rating, Giant foxtail” value ([1]; POSTEMERGENCE, 62 g/ha) was 50, the “Plant response rating, Giant foxtail” value ([1]; POSTEMERGENCE, 250 g/ha) was 70 and the “Plant response rating (0 to 100), Giant foxtail” value ([1]; POSTEMERGENCE, Rate 4 g/ha) was 0. The “Plant response rating, Giant foxtail” value ([1]; PREEMERGENCE, 62 g/ha) was 70, the “Plant response rating, Giant foxtail” value ([1]; PREEMERGENCE, 250 g/ha) was 100 and the “Plant response rating (0 to 100), Giant foxtail” value ([1]; PREEMERGENCE, Rate 4 g/ha) was 0. The “Plant response rating (0 to 100), Giant foxtail” value ([1]; Rate 16 g/ha, POSTEMERGENCE) was 40, the “Plant response rating (0 to 100), Giant foxtail” value ([1]; Rate 16 g/ha, PREEMERGENCE) was 30 and the “Plant response rating, Wheat” value ([2]; POSTEMERGENCE, 62 g/ha) was 40. For the same compound, the “Plant response rating, Wheat” value ([2]; POSTEMERGENCE, 250 g/ha) was 60, the “Plant response rating (0 to 100), Wheat” value ([2]; POSTEMERGENCE, Rate 4 g/ha) was 20 and the “Plant response rating, Wheat” value ([2]; PREEMERGENCE, 250 g/ha) was 10. The “Plant response rating (0 to 100), Wheat” value ([2]; PREEMERGENCE, Rate 4 g/ha) was 0, the “Plant response rating (0 to 100), Wheat” value ([2]; Rate 16 g/ha, POSTEMERGENCE) was 20 and the “Plant response rating (0 to 100), Wheat” value ([2]; Rate 16 g/ha, PREEMERGENCE) was 0. The “Plant response rating, Corn” value ([3]; POSTEMERGENCE, 62 g/ha) was 50, the “Plant response rating, Corn” value ([3]; POSTEMERGENCE, 250 g/ha) was 50 and the “Plant response rating, Corn” value ([3]; PREEMERGENCE, 62 g/ha) was 0. For the same compound, the “Plant response rating, Corn” value ([3]; PREEMERGENCE, 250 g/ha) was 30, the “Plant response rating (0 to 100), Corn” value ([3]; PREEMERGENCE, Rate 4 g/ha) was 0 and the “Plant response rating (0 to 100), Corn” value ([3]; Rate 4 g/ha, POSTEMERGENCE) was 30. The “Plant response rating (0 to 100), Corn” value ([3]; Rate 16 g/ha, POSTEMERGENCE) was 40, the “Plant response rating (0 to 100), Corn” value ([3]; Rate 16 g/ha, PREEMERGENCE) was 0 and the “Plant response rating, Bedstraw” value ([4]; POSTEMERGENCE, 62 g/ha) was 100. The “Plant response rating, Bedstraw” value ([4]; POSTEMERGENCE, 250 g/ha) was 100, the “Plant response rating, Bedstraw” value ([4]; PREEMERGENCE, 62 g/ha) was 100 and the “Plant response rating, Bedstraw” value ([4]; PREEMERGENCE, 250 g/ha) was 100. The “Plant response rating (0 to 100), Bedstraw” value ([4]; PREEMERGENCE, Rate 4 g/ha) was 20, the “Plant response rating (0 to 100), Bedstraw” value ([4]; Rate 4 g/ha, POSTEMERGENCE) was 70 and the “Plant response rating (0 to 100), Bedstraw” value ([4]; Rate 16 g/ha, POSTEMERGENCE) was 80. For the same compound, the “Plant response rating (0 to 100), Bedstraw” value ([4]; Rate 16 g/ha, PREEMERGENCE) was 60, the “Plant response rating, Velvetleaf” value ([5]; POSTEMERGENCE, 62 g/ha) was 100 and the “Plant response rating, Velvetleaf” value ([5]; POSTEMERGENCE, 250 g/ha) was 100. For the same compound, the “Plant response rating (0 to 100), Velvetleaf” value ([5]; POSTEMERGENCE, Rate 4 g/ha) was 90, the “Plant response rating, Velvetleaf” value ([5]; PREEMERGENCE, 250 g/ha) was 100 and the “Plant response rating (0 to 100), Velvetleaf” value ([5]; PREEMERGENCE, Rate 4 g/ha) was 50. For the same compound, the “Plant response rating (0 to 100), Velvetleaf” value ([5]; Rate 16 g/ha, POSTEMERGENCE) was 100, the “Plant response rating (0 to 100), Velvetleaf” value ([5]; Rate 16 g/ha, PREEMERGENCE) was 90 and the “Plant response rating (0 to 10 scale), Bedstraw” value ([6]; POSTEMERGENCE, Rate 50 g/ha) was 9. For the same compound, the “Plant response rating, Bedstraw” value ([6]; POSTEMERGENCE, Rate 200 g/ha) was 9, the “Plant response rating, Bedstraw” value ([6]; PREEMERGENCE, Rate 50 g/ha) was 10 and the “Plant response rating, Bedstraw” value ([6]; Rate 200 g/ha, PREEMERGENCE) was 10. For the same compound, the “Plant response rating (0 to 10 scale), Corn” value ([7]; POSTEMERGENCE, Rate 50 g/ha) was 5, the “Plant response rating, Corn” value ([7]; POSTEMERGENCE, Rate 200 g/ha) was 5 and the “Plant response rating, Corn” value ([7]; PREEMERGENCE, Rate 50 g/ha) was 4. For the same compound, the “Plant response rating, Corn” value ([7]; Rate 200 g/ha, PREEMERGENCE) was 6, the “Plant response rating (0 to 100), Barnyardgrass” value ([8]; Rate 4 g/ha) was 100 and the “Plant response rating (0 to 100), Barnyardgrass” value ([8]; Rate 16 g/ha) was 100. For the same compound, the “Plant response rating, Barnyardgrass” value ([8]; 62 g/ha) was 100, the “Plant response rating, Barnyardgrass” value ([8]; 250 g/ha) was 100 and the “Plant response rating (0 to 100), Duck salad” value ([9]; POSTEMERGENCE section, flood test, Rate 4 g/ha) was 55. The “Plant response rating (0 to 100), Duck salad” value ([9]; Rate 16 g/ha, under POSTEMERGENCE head (flood test species)) was 60.
